Reference: patent EP2241312A1, “Use of compositions comprising urea for treating microbial infections” (ISDIN S.A., priority 2009, dated 2010)
Where two headings read alike, the source gives them in different places.

Tests used:
Assay in all cases: cells
Assay type in all cases: cell-based, human
HBD2 = details: for fold induction at 10000 µM: Homo sapiens, Keratinocyte
Procedure: (§1) Primary human epidermal keratinocytes were prepared from neonatal foreskin as described previously (Grether-Beck et al, 1996, 2000, 2003, 2005, 2008) and maintained in culture under serum free conditions using a defined keratinocyte growth medium Keratinocyte SFM (Invitrogen, Heidelberg, Germany) supplemented with bovine pituitary extract (Invitrogen, Heidelberg, Germany) and recombinant epidermal growth factor (Invitrogen, Heidelberg, Germany). Cells were propagated up to passage 2 or 3 at 37°C and 5 % CO2 (Grether-Beck et al, 1996, 2000, 2003, 2005, 2008). For induction of differentiation NHEKs were seeded in 6well plates and grown up to confluence.
(§2) For assessment of gene expression total RNA was extracted from frozen biopsies (Ø 4 mm) and gene expression measured by semiquantitative RT-PCR. For isolation of RNA from frozen skin biopsies, 600 µl lysis buffer from PeqGold Total RNA Kit (PeqLab, Erlangen, Germany) were added and the samples were disrupted in a MixerMill MM300 (Retsch, Haan, Germany) three times for 3 min with 30 Hz. 50 ng total RNA were used for cDNA synthesis. PCR reactions were performed in an Opticon 1 (MJ Research, Waltham, MA, USA) using Sybr QPCR Supermix w. Rox (Invitrogen, Karlsruhe, Germany). PCR conditions were as follows: activation of hot start taq polymerase 94° C 15 minutes; denaturation 95° C, 20 seconds; annealing, 55° C, 20 seconds; extension, 72° C 30 seconds. Each sample was subjected to PCR in double using the appropriate primer pairs for 45-50 cycles. For comparison of relative expression in real time PCR control cells and treated cells the 2 (-della delta C(T)) method was used (Livak KJ, and Schmittgen TD. Analysis of relative gene expression data using real time quantitative PCR and the 2 (-delta delta C(T)) method. Methods 2001: 25: 402 - 408). mRNA expression of the genes of interest was shown as fold induction as compared to untreated skin samples of the same volunteer. Table 1: Primer pairs for real time PCR
(§3) For determination of relative gene expression in real time PCT the 2(-delta delta C(T))-method was used as described in Livak and Schmittgen (2001) "Analysis of relative gene expression data using real time quantitative PCR and the 2 (-delta delta C(T))-method" Methods 25: 401-408. For statistical analysis, the experimental data were analyzed using the Wilcoxon signed-rank test.
(§4) HNKs were stimulated with 10mM urea for the indicated time points (3h, 6h, 12h, 24h) and processed for RNA analysis (1). Data are the result of a set of three samples for the control and two samples in parallel for the urea stimulated ones. Table 2 indicates the relative gene expression levels after stimulation with urea as compared to untreated contol cells. […] Table 3 indicates the data depicted in Figure 2. [formula] Table 2: Expression of antimicrobial peptides in human keratinocytes after stimulation with urea at different time points after induction.

HBD3 = details: for fold induction at 10000 µM: Homo sapiens, Keratinocyte; for relative gene expression level HBD3: primary keratinocytes, 10000 µM
Procedure: as §1, §2, §3, §4

HBD1 = details: for fold induction at 10000 µM: Homo sapiens, Keratinocyte; for relative gene expression level HBD1: primary keratinocytes, 10000 µM
Procedure: as §1, §2, §3, §4

Humpsor = details: for fold induction at 10000 µM: Homo sapiens, Keratinocyte
Procedure: as §1, §2, §3, §4

HBD-2 = details: for fold induction at 1000 µM / fold induction at 10000 µM / fold induction at 20000 µM / fold induction at 50000 µM / fold induction at 100000 µM / fold induction at 5000 µM: Homo sapiens, Keratinocyte; for Expression of HBD-2: keratinocytes
Procedure: as §1, §2, §3
Data are the result of a set of three samples for the control and two samples in parallel for the urea stimulated ones. Table 2 indicates the relative gene expression levels after stimulation with urea as compared to untreated contol cells. […] Table 3 indicates the data depicted in Figure 2. [formula] Table 2: Expression of antimicrobial peptides in human keratinocytes after stimulation with urea at different time points after induction.

Question: How did the fold induction at 10000 µM (HBD2; 3 h, read-out: relative gene expression level HBD2, 10mM urea, 3h, compared to untreated control cells) turn out when `NC(N)=O` [urea] was run?
Answer: 1.8

Question: What about the fold induction at 10000 µM (HBD2; 6 h, read-out: relative gene expression level HBD2, 10mM urea, 6h, compared to untreated control cells) of the same compound?
Answer: 1.1

Question: What about the fold induction at 10000 µM (HBD2; 12 h, read-out: relative gene expression level HBD2, 10mM urea, 12h, compared to untreated control cells) of the same compound?
Answer: 1.5

Question: What about the fold induction at 10000 µM (HBD2; 24 h, read-out: relative gene expression level HBD2, 10mM urea, 24h, compared to untreated control cells) of the same compound?
Answer: 1.6

Question: What about the “relative gene expression level HBD2” value (HBD2; primary keratinocytes, 3 h, 10000 µM) of the same compound?
Answer: 1.7000

Question: What about the fold induction at 10000 µM (HBD3; 3 h, read-out: relative gene expression level HBD3, 10mM urea, 3h, compared to untreated control cells) of the same compound?
Answer: 4

Question: And the fold induction at 10000 µM (HBD3; 6 h, read-out: relative gene expression level HBD3, 10mM urea, 6h, compared to untreated control cells)?
Answer: 2

Question: What about the fold induction at 10000 µM (HBD3; 12 h, read-out: relative gene expression level HBD3, 10mM urea, 12h, compared to untreated control cells) of the same compound?
Answer: 1.6

Question: And the fold induction at 10000 µM (HBD3; 24 h, read-out: relative gene expression level HBD3, 10mM urea, 24h, compared to untreated control cells)?
Answer: 3.2

Question: What about the “relative gene expression level HBD3” value (HBD3; 3 h) of the same compound?
Answer: 3.7000

Question: What about the “relative gene expression level HBD3” value (HBD3; 6 h) of the same compound?
Answer: 1.8000

Question: And the “relative gene expression level HBD3” value (HBD3; 12 h)?
Answer: 1.7000

Question: And the “relative gene expression level HBD3” value (HBD3; 24 h)?
Answer: 3.3000

Question: And the fold induction at 10000 µM (HBD1; 3 h, read-out: relative gene expression level HBD1, 10mM urea, 3h, compared to untreated control cells)?
Answer: 3.1

Question: What about the fold induction at 10000 µM (HBD1; 6 h, read-out: relative gene expression level HBD1, 10mM urea, 6h, compared to untreated control cells) of the same compound?
Answer: 1.3

Question: And the fold induction at 10000 µM (HBD1; 12 h, read-out: relative gene expression level HBD1, 10mM urea, 12h, compared to untreated control cells)?
Answer: 1.6

Question: What about the fold induction at 10000 µM (HBD1; 24 h, read-out: relative gene expression level HBD1, 10mM urea, 24h, compared to untreated control cells) of the same compound?
Answer: 1.6

Question: And the “relative gene expression level HBD1” value (HBD1; 3 h)?
Answer: 3.000

Question: And the “relative gene expression level HBD1” value (HBD1; 6 h)?
Answer: 1.5000

Question: What about the fold induction at 10000 µM (Humpsor; 3 h, read-out: relative gene expression level Humpsor, 10mM urea, 3h, compared to untreated control cells) of the same compound?
Answer: 1.9

Question: What about the fold induction at 10000 µM (Humpsor; 6 h, read-out: relative gene expression level Humpsor, 10mM urea, 6h, compared to untreated control cells) of the same compound?
Answer: 2.6

Question: And the fold induction at 10000 µM (Humpsor; 24 h, read-out: relative gene expression level Humpsor, 10mM urea, 24h, compared to untreated control cells)?
Answer: 1.5

Question: And the “relative gene expression level Humpsor” value (Humpsor; primary keratinocytes, 6 h, 10000 µM)?
Answer: 3.1000

Question: What about the fold induction at 1000 µM (HBD-2; 24 h, read-out: Expression of HBD-2, 24h, 1mM urea) of the same compound?
Answer: 1.2

Question: And the fold induction at 10000 µM (HBD-2; 24 h, read-out: Expression of HBD-2, 24h, 10mM urea)?
Answer: 1.5

Question: What about the fold induction at 20000 µM (HBD-2; 24 h, read-out: Expression of HBD-2, 24h, 20mM urea) of the same compound?
Answer: 3.9

Question: What about the fold induction at 50000 µM (HBD-2; 24 h, read-out: Expression of HBD-2, 24h, 50mM urea) of the same compound?
Answer: 2.3

Question: What about the fold induction at 100000 µM (HBD-2; 24 h, read-out: Expression of HBD-2, 24h, 100mM urea) of the same compound?
Answer: 1.3

Question: And the fold induction at 1000 µM (HBD-2; 48 h, read-out: Expression of HBD-2, 48h, 1mM urea)?
Answer: 0.9

Question: And the fold induction at 5000 µM (HBD-2; 48 h, read-out: Expression of HBD-2, 48h, 5mM urea)?
Answer: 1.7

Question: What about the fold induction at 10000 µM (HBD-2; 48 h, read-out: Expression of HBD-2, 48h, 10mM urea) of the same compound?
Answer: 3.3

Question: What about the fold induction at 20000 µM (HBD-2; 48 h, read-out: Expression of HBD-2, 48h, 20mM urea) of the same compound?
Answer: 19.1

Question: And the fold induction at 50000 µM (HBD-2; 48 h, read-out: Expression of HBD-2, 48h, 50mM urea)?
Answer: 6.3

Question: What about the fold induction at 100000 µM (HBD-2; 48 h, read-out: Expression of HBD-2, 48h, 100mM urea) of the same compound?
Answer: 2.3

Question: What about the fold induction at 1000 µM (HBD-2; 72 h, read-out: Expression of HBD-2, 72h, 1mM urea) of the same compound?
Answer: 2.2

Question: And the fold induction at 5000 µM (HBD-2; 72 h, read-out: Expression of HBD-2, 72h, 5mM urea)?
Answer: 5.4

Question: And the fold induction at 10000 µM (HBD-2; 72 h, read-out: Expression of HBD-2, 72h, 10mM urea)?
Answer: 6.5

Question: And the fold induction at 20000 µM (HBD-2; 72 h, read-out: Expression of HBD-2, 72h, 20mM urea)?
Answer: 13.3

Question: And the fold induction at 50000 µM (HBD-2; 72 h, read-out: Expression of HBD-2, 72h, 50mM urea)?
Answer: 10.1

Question: And the fold induction at 100000 µM (HBD-2; 72 h, read-out: Expression of HBD-2, 72h, 100mM urea)?
Answer: 2.9

Question: What about the fold induction at 1000 µM (HBD-2; 96 h, read-out: Expression of HBD-2, 96h, 1mM urea) of the same compound?
Answer: 1.9

Question: And the fold induction at 5000 µM (HBD-2; 96 h, read-out: Expression of HBD-2, 96h, 5mM urea)?
Answer: 4.1

Question: What about the fold induction at 10000 µM (HBD-2; 96 h, read-out: Expression of HBD-2, 96h, 10mM urea) of the same compound?
Answer: 6.1

Question: What about the fold induction at 20000 µM (HBD-2; 96 h, read-out: Expression of HBD-2, 96h, 20mM urea) of the same compound?
Answer: 15

Question: And the fold induction at 50000 µM (HBD-2; 96 h, read-out: Expression of HBD-2, 96h, 50mM urea)?
Answer: 12.6

Question: And the fold induction at 100000 µM (HBD-2; 96 h, read-out: Expression of HBD-2, 96h, 100mM urea)?
Answer: 10.2

Question: What about the “Expression of HBD-2” value (HBD-2; 24 h, 1000 µM) of the same compound?
Answer: 1.1000

Question: And the “Expression of HBD-2” value (HBD-2; 24 h, 10000 µM)?
Answer: 1.6000

Question: And the “Expression of HBD-2” value (HBD-2; 48 h, 1000 µM)?
Answer: 0.7000

Question: And the “Expression of HBD-2” value (HBD-2; 48 h, 5000 µM)?
Answer: 1.6000

Question: And the “Expression of HBD-2” value (HBD-2; 48 h, 50000 µM)?
Answer: 6.2000

Question: What about the “Expression of HBD-2” value (HBD-2; 48 h, 100000 µM) of the same compound?
Answer: 2.6000

Question: And the “Expression of HBD-2” value (HBD-2; 72 h, 1000 µM)?
Answer: 2.6000

Question: What about the “Expression of HBD-2” value (HBD-2; 72 h, 10000 µM) of the same compound?
Answer: 7.0000

Question: And the “Expression of HBD-2” value (HBD-2; 72 h, 20000 µM)?
Answer: 13.2000

Question: And the “Expression of HBD-2” value (HBD-2; 96 h, 1000 µM)?
Answer: 1.8000

Question: What about the “Expression of HBD-2” value (HBD-2; 96 h, 5000 µM) of the same compound?
Answer: 4.2000

Question: What about the “Expression of HBD-2” value (HBD-2; 96 h, 100000 µM) of the same compound?
Answer: 10.9000
